Reference: EP1422230B1 (priority 2002, dated 2004)
Counter-ions that a name gives are not always drawn. Like-named read-outs stand apart in the source and are kept apart here.

What was measured:
rats = test system: rats; parameters: species or system male Sprague-Dawley rats; conditions: rat, in vivo
[1] = parenteral, on a weight basis; cited from earlier work
[2] = intramuscular injection or intravenous injection; cited from earlier work
[3] = cited from earlier work; for Plasma concentrations: intravenous about 0.3 mg
[4] = intravenous, single dose of about 0.3 mg

For CO[C@]12CC[C@@]3(C[C@@H]1[C@](C)(O)C(C)(C)C)[C@H]1Cc4ccc(O)c5c4[C@@]3(CCN1CC1CC1)[C@H]2O5 [Buprenorphine base, (5α, 7α (S)-17-cyclopropyl-methyl)-α -(1,1-dimethylethyl)-4,5-epoxy-18,19-dihydro-3-hydroxy-6-methoxy-α -methyl-6,14-ethenomorphinan-7-methanol], the “duration of analgesic action” value (rats) is listed as 48 to 50 h, the duration of action (rats; sc) is listed as 48 to 50 h and the “analgesic potency, times as that of meperidine” value [1] is listed as “about 600 times”. The “analgesic potency, times as that of pentazocine” value [1] was “about 200 times”, the duration of action [2] was 6 to 8 h and the Cmax ([3]; 0.4 mg sublingual dose) was 0.5 ± 0.06 ng/mL. The Tmax ([3]; 0.4 mg sublingual dose) was 3.5 ± 0.667 h, the systemic availability ([3]; 0.4 mg sublingual dose) was 57.7±6% and the Total plasma clearance ([3]; conscious postoperative patients) was “approximately 0.28 L/minute”. The “mean peak plasma buprenorphine concentrations” value ([3]; intramuscular second 0.3-mg dose 3 hours after the initial intravenous dose) was “about 3.6 ng/mL”, the plasma buprenorphine concentrations ([3]; intramuscular second 0.3-mg dose, after about 3 hours) was “about 0.4 ng/mL” and the Plasma concentrations ([3]; after about 5 minutes) was “about 9 ng/mL”. The Plasma concentrations ([3]; after about 3 hours) was “about 0 .4 ng/mL”, the “mean peak plasma drug concentrations” value [3, 4] was “about 18 ng/mL” and the “time of mean peak plasma drug concentrations” value [3, 4] was ≤ 2 min.

In the case of CO[C@]12CC[C@@]3(C[C@@H]1[C@](C)(O)C(C)(C)C)[C@H]1Cc4ccc(O)c5c4[C@@]3(CCN1CC1CC1)[C@H]2O5 [Buprenorphine HCl], the “Analgesic duration” value (rats; HCl) is reported as 5 h and the “duration of analgesic action” value (rats; HCl) is reported as 3 to 5 h.
